In patent US20230176063A1, “PHOTOREACTIVE AND CLEAVABLE PROBES FOR TAGGING BIOMOLECULES” (Academia Sinica, priority 2020, published 2023):

Tested on: nucleolin
Experiment: photoselective tagging of nucleolin using azo probe
Type: cell-based
Conditions: fixed U2OS cells
Experimental: Nucleolin is a protein found in the nucleolus of eukaryotic cells and involved in the synthesis of ribosomes. Azo-probe 1 was conjugated to a secondary antibody by using BCN-NHS (CAS# 1516551-46-4) as additional linker between Azo-probe 1 and secondary antibody. A sample of U2OS cells was grown on a glass-bottom chamber slide and fixed with 2.4% PFA. The antibody conjugated with Azo-probe 1 was applied to the sample stained with anti-nucleolin antibody. The sample was exposed to 780 nm two-photon irradiation (200mW, 200 µs/pixel) to photocrosslink the light activated warhead to the antibody and subsequently incubated with 1 M sodium dithionite at room temperature for over 16 h to remove non-crosslinked probes. Neutravidin conjugated to Alexa Fluor 647 dye was added and the sample assayed for the Alexa Fluor 647. Alexa Fluor 647 is a bright, far-red-fluorescent dye with excitation ideally suited for the 594 nm or 633 nm laser lines. Results are shown in the top panel of FIG. 12B. A close-up view is shown in the top right side of FIG. 12B. […] A side view is shown in the bottom right of FIG. 12B.

O=C(CCCC[C@@H]1SC[C@@H]2NC(=O)N[C@@H]21)N[C@@H](Cc1cn(CCOCCOCCOCCNC(=O)c2ccc(C(=O)c3ccccc3)cc2)nn1)C(=O)NCCc1ccc(O)c(/N=N/c2ccc(C(=O)ON3C(=O)CCC3=O)cc2)c1 [Azo-probe 1]
Alexa Fluor 647 (Neutravidin) staining of tagged nucleolin (probe conjugated to secondary antibody via BCN-NHS, 780 nm two-photon irradiation (200mW, 200 µs/pixel), 1 M sodium dithionite over 16 h): characteristic nucleoli shape is observed | Alexa Fluor 647 (Neutravidin) staining of tagged nucleolin, control region (treated the same but not exposed to photoactivating light): No significant staining was observed
